Data taken from EP0909530A1, “Increased solubility of water soluble compounds” (BASF CORPORATION, priority 1997, dated 1999).

Experiment: Crystal formation in acifluorfen solution with co-solvents after cold storage (Example 2)
Type: physicochemical
Settings: for Crystal Formation (%): stored at 5°C for 4 days, read at room temperature; for inhibition of precipitate: result in words
Protocol: An aqueous solution having a concentration of 46.8 % acifluorfen (sodium salt, Rohm and Haas, Inc.; significant crystallization observed) was heated to about 50°C to 60°C and stirred until the crystals dissolved (about ten hours). The solution was allowed to cool to room temperature. The dispersants were separately added to the solutions containing the acifluorfen to form a 1.0% solution (by weight) of the dispersant. The resulting samples were stored at 5°C for four days.
After four days, the samples were removed from storage and allowed to reach room temperature and the volume occupied by crystals was calculated (visual estimates) . The results were obtained by observation using a polarized Nikon Optiphot-2 Pol microscope.
Co-Solvents were evaluated for their ability to inhibit precipitation of acifluorfen in aqueous solutions. The experiment was carried-out using the same steps as described for the dispersants of Example 1. The co-solvents were evaluated at 5% and 10% by total weight of the solution. The formulations were stored at 5°C for 4 days and the percent crystal volume recorded after the temperature reached room temperature. […]

SMILES | Crystal Formation (%) (co-solvent Amount 5 %) | Crystal Formation (%) (co-solvent Amount 10 %) | inhibition of precipitate
CCCCOCCO [Butyl Cellosolve] | 10% | 15% | most significant inhibition
OCCO [Ethylene Glycol] | 10% | 15% | most significant inhibition
CC(O)CO (centres unmarked) [Propylene Glycol] | 10% | 80% | 
